According to patent US11406694B2, “Vaccine comprising drug and parasite administration” (priority 2016, dated 2022):

Experiments:
P. falciparum 7G8 = experiment: Blood stage P. falciparum infection of human volunteers under doxycycline, parasitaemia by qPCR; type: in vivo; settings: two volunteers, 3×10^6 P. falciparum pRBC, 100 mg doxycycline once daily for 21 days
Method: FIG. 13: Persistence of P. falciparum 7G8 in volunteers receiving doxycycline chemoprophylaxis. […] Volunteers received 3×106 pRBCs on D0, followed by doxycycline treatment administered orally (100 mg/day) from D0 to D20.
We have also started human experiments. Initially we have given two volunteers a blood stage infection initiated with 3×10^6 magnet-purified P. falciparum trophozoite-parasitized human red cells (pRBC). At the same time, volunteers were administered 100 mg doxycycline once daily for 21 days, although this could be changed to twice daily. A controlled release form of doxycycline (such as Atridox® comprising doxycycline hyclate) will also be tested.
Parasite concentration is determined whereby the log10 of each known concentration of a standard concentration range is plotted against the quantification cycle of Cq values of the test samples in a linear regression model (y=mx+b) using Biorad CFX manager 2.1 software.

Plasmodium parasite = experiment: Blood-stage infection of mice under daily doxycycline treatment (course of infection during infection/drug cure); type: in vivo
Method: The work described herein relates to giving mice and humans a blood stage malaria infection and daily doses of oral (human) or intraperitoneal (mice) doxycycline as a delayed death agent. This cycle can be repeated and we have given mice 1 or 3 cycles of infection/drug cure (IDC) with doxycycline.
Mice (BALB/c or C57/B6) received varying doses of Plasmodium parasite (10^5-10^7 trophozoite parasitised red blood cells; pRBC), administered via intravenous injection (200 μL). Mice were subsequently started on doxycycline treatment (doxycycline hydrate (Sigma) dissolved in 1× phosphate buffered saline, 50 mg/kg administered in ˜100 μL volume via intraperitoneal injection) approximately 1-2 hours post infection. Mice received treatment every day for 7 days. Subsequent infection and drug cures (IDCs) were administered 2 weeks from the day of last treatment (or 3 weeks between infections). Mice were challenged 4 weeks from the day of last treatment of the last round of IDC (or 5 weeks from last infection).
Blood smears were performed on D1, 2, 4 and 6 post infection during IDC 1, 2 and 3.

## C[C@H]1c2cccc(O)c2C(=O)C2=C(O)[C@]3(O)C(=O)C(C(N)=O)=C(O)[C@@H](N(C)C)[C@@H]3[C@@H](O)[C@@H]21 [doxycycline]
P. falciparum 7G8
  illness of the volunteers: did not become ill
Plasmodium parasite; 10^5-10^7 pRBC i.v., doxycycline 50 mg/kg i.p. daily for 7 days
  time the infection takes to clear: approximately 4 days
Plasmodium parasite; pRBC i.v. with doxycycline 50 mg/kg i.p. daily for 7 days
  condition of the mice during the infection: remain well
